In patent publication US9951050B2, “Method of inhibiting DYRK1B” (4SC Discovery GmbH, priority 2013, dated 2018):
Entries after “also recorded” stand apart in the source; their conditions may differ.

Experiments:
DYRK1B = target: T1, DYRK1B (Homo sapiens, UniProt Q9Y463); test: In vitro DYRK1B kinase assay (33P-ATP, DYRKtide substrate, Reaction Biology Corp.); format: biochemical; settings: 10 μM ATP, 20 μM DYRKtide
T1 construct: full-; Insect; N-terminal; length; GST; GST (N); purchased Reaction Biology Corp; host or cells: Insect
T1 sequence (Q9Y463 whole entry): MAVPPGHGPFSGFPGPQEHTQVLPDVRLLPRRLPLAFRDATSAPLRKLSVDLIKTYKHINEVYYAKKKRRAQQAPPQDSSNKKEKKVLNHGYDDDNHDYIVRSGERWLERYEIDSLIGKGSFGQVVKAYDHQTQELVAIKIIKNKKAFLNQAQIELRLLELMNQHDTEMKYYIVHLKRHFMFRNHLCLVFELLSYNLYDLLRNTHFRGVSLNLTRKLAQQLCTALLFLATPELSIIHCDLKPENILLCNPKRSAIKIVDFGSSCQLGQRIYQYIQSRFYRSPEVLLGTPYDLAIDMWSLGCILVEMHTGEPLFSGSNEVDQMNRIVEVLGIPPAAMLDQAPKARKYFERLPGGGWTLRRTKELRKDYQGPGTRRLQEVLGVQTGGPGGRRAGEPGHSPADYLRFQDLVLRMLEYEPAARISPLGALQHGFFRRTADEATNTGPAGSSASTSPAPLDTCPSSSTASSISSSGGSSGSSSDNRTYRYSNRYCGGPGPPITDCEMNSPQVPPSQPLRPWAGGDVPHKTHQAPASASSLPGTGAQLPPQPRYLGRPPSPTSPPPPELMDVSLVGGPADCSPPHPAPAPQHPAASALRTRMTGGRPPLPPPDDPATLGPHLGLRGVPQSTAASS
Procedure: (§1) The assay was carried out by Reaction Biology Corp., Malverne, Pa., USA according to specifications by Reaction Biology Corp., as detailed herein below and further described in Anastassiadis et al., Nature Biotechnology, 29 (2011) 1039-1045.
(§2) DYRK1A: The substrate DYRKtide (synthetic peptide […]) (SEQ ID NO: 5) was dissolved in freshly prepared Base Reaction Buffer (20 mM Hepes (pH 7.5), 10 mM MgCl2, 1 mM EGTA, 0.02% Brij35, 0.02 mg/ml BSA, 0.1 mM Na3VO4, 2 mM DTT, 1% DMSO) at a concentration of 20 μM. DYRK1A was added to the substrate solution in a concentration of 0.3 nM and gently mixed. Compound dilution series in DMSO were added to the reaction, followed 20 min later by addition of a mixture of ATP and ^33P ATP (0.01 μCi/μl final) to a final concentration of 10 μM. Reactions proceeded at 25° C. for 120 min, followed by spotting onto P81 ion exchange filter paper. Unbound phosphate was removed by extensive washing of the filters in 0.75% phosphoric acid. […] IC50 values and curve fits were obtained using Prism (Graph Pad Software).
The assay for DYRK1B was carried out as described above for DYRK1A, with the exception that instead of DYRK1A, DYRK1B was added to the substrate solution and gently mixed.
(§3) DYRK1A and DYRK1B used in the above assays are further described in the below table: […]

[1] = test system: Hedgehog signaling pathway (GLI1, GLI2, PTCH1 expression) in DAOY cells; test: Western blot / qPCR of Hedgehog target genes in SAG-stimulated DAOY medulloblastoma cells; format: cell-based, human; settings: for HH signaling / GLI target gene activation: SAG stimulated DAOY cells, Harmine 10 or 25 μM, Cpd P 1 or 5 μM; for GLI1 protein expression: Western blot
Procedure: (§4) DAOY cells (ATCC) were grown in MEM media (PAA Laboratories, Germany) supplemented with 10% fetal bovine serum (FBS) (PAA Laboratories, Germany), penicillin (62.5 μg/ml) and streptomycin ([…]) at 37° C. in an atmosphere containing 5% CO2. BSZ2 cells (So et al., 2006) were grown in 154-CF media (Life Technologies, UK) supplemented with 2% heat inactivated (56° C. for 30 minutes) and chelexed fetal bovine serum (FBS) (PAA Laboratories, Germany) (FBS was chelexed by adding to 50 mL FBS 10 g Chelex 100 (Bio-Rad Laboratories GmbH, Germany) followed by stirring for 60 min at RT; chelexed FBS was sterile filtered prior to use), penicillin (62.5 μg/ml) and streptomycin ([…]) at 37° C. in an atmosphere containing 5% CO2. Panc-1 and A673 cells (ATCC) were grown in DMEM media (PAA Laboratories, Germany) supplemented with 10% fetal bovine serum (FBS) (PAA Laboratories, Germany), penicillin (62.5 μg/ml) and streptomycin ([…]) at 37° C. in an atmosphere containing 5% CO2. For 3-dimensional (3D) cultures, 5×10^3 cells were seeded in 12-well plates in 0.4% select agar on top of 0.5% bottom select agar (Life Technologies, Germany) according to standard protocols of anchorage independent growth assays (Eberl et al., 2012). 3D cultures were grown for 4-6 weeks at 37° C. in a humidified atmosphere containing 5% CO2. Colony formation was documented on a stereomicroscope with Cell^D Image capture system (Olympus) and quantified using Colony Counter Software (Microtec Nition, Japan). SAG (smoothened agonist, N-Methyl-N′-(3-pyridinylbenzyl)-N′-(3-chlorobenzo[b]thiophene-2-carbonyl)-1,4-diaminocyclohexane) (Axxora LCC), Harmine (Fisher Scientific), GDC-0449 (LC Laboratories), GANT61 (Merck Chemicals Ltd.) and 4SC Compound P (4SC Discovery GmbH, Germany) were dissolved in DMSO. The final DMSO concentration in all wild-type DAOY samples was 0.2%, in all other cell line experiments including DAOY shSUFU cells 0.1%.
Total RNA was isolated using TRI-reagent (Molecular Research Center Inc.) followed by LiCl purification step. For this purpose, total RNA was dissolved in 100 mM Hepes pH 7.4/6M Urea and selectively precipitated by adding LiCl to a final concentration of 3M and incubating for 2 h at −20° C. Precipitated and purified RNA was used for cDNA synthesis using Superscript II reverse transcriptase (Life Technologies, Germany) according to the manufacturer's instructions. qPCR was done on a Rotorgene3000 (Qiagen, Germany) using iQ Sybr Green Supermix reagent (Bio-Rad Laboratories, UK). For qPCR analysis the following primer pairs (Microsynth AG, Switzerland) were used:
For Western blot analysis, cells were lysed in Laemmli buffer supplemented with PhosStop (Roche, Germany) and cOmplete EDTA-free Protease Inhibitor Cocktail (Roche, Germany). Proteins were visualized with horseradish peroxidase-conjugated secondary antibodies in combination with enhanced chemiluminescence detection system (GE Health Care, USA).
To address the effect of selected gene perturbations on canonical endogenous Hedgehog signaling in a human cancer cell line, the human medulloblastoma cell line (DAOY, ATCC ident. HTB-186) showing full responsiveness to Hedgehog activation by Smoothened agonist (SAG) as evidenced by activation of the direct Hedgehog target gene GLI1, a reliable and robust indicator of Hedgehog signaling pathway activity (FIG. 1) (Chen et al., 2002).
SAG stimulated DAOY cells were treated with Harmine (7-MeO-1-Me-9H-pyrido[3,4-b]-indole) (dissolved at room temperature as 25 mM stock solution in DMSO and used at final concentration of 10 μM or 25 μM), a naturally occurring DYRK1 inhibitor, as well as with Compound P (Cpd P, dissolved at room temperature in DMSO as 20 mM stock solution and used at final concentration of 1 μM or 5 μM, respectively), a small molecule inhibitor of DYRK1, which is structurally unrelated to Harmine.

DYRK1A = target: T2, DYRK1A (Homo sapiens, UniProt Q13627); test: In vitro DYRK1A kinase assay (33P-ATP, DYRKtide substrate, Reaction Biology Corp.); format: biochemical; settings: 10 μM ATP, 20 μM DYRKtide, 0.3 nM enzyme
T2 construct: full-; Insect; N-terminal; length; GST; GST (N); purchased Reaction Biology Corp; host or cells: Insect
Procedure: as §1, §2, §3

[2] = test system: tumor-initiating PANC1 pancreatic cancer cells; test: Anchorage-independent 3D culture clonal growth (tumorsphere) assay, PANC1; format: cell-based, human; settings: PANC1, anchorage-independent 3D cultures
Procedure: (§5) DAOY cells (ATCC) were grown in MEM media (PAA Laboratories, Germany) supplemented with 10% fetal bovine serum (FBS) (PAA Laboratories, Germany), penicillin (62.5 μg/ml) and streptomycin ([…]) at 37° C. in an atmosphere containing 5% CO2. BSZ2 cells (So et al., 2006) were grown in 154-CF media (Life Technologies, UK) supplemented with 2% heat inactivated (56° C. for 30 minutes) and chelexed fetal bovine serum (FBS) (PAA Laboratories, Germany) (FBS was chelexed by adding to 50 mL FBS 10 g Chelex 100 (Bio-Rad Laboratories GmbH, Germany) followed by stirring for 60 min at RT; chelexed FBS was sterile filtered prior to use), penicillin (62.5 μg/ml) and streptomycin ([…]) at 37° C. in an atmosphere containing 5% CO2. Panc-1 and A673 cells (ATCC) were grown in DMEM media (PAA Laboratories, Germany) supplemented with 10% fetal bovine serum (FBS) (PAA Laboratories, Germany), penicillin (62.5 μg/ml) and streptomycin ([…]) at 37° C. in an atmosphere containing 5% CO2. […] Colony formation was documented on a stereomicroscope with Cell^D Image capture system (Olympus) and quantified using Colony Counter Software (Microtec Nition, Japan). […]

[3] = test system: GLI1 protein expression in PANC1 cells; test: Western blot of PANC1 pancreatic cancer cells; format: cell-based, human; settings: for GLI1 protein expression: GDC-0449 0.5 μM
Procedure: as §4, with “0.1%. […]” for “0.1%.”
(§6) The function of DYRK1 isoforms in SMO-independent/GLI-dependent pancreatic cancer and Ewing's sarcoma (EWS) cell lines PANC1 and A673, respectively, was analyzed. […]

[4] = test system: tumor-initiating L3.6pl pancreatic cancer cells; test: Anchorage-independent 3D culture clonal growth (tumorsphere) assay, L3.6pl; format: cell-based; settings: anchorage-independent 3D cultures
[5] = test system: GLI1 and PTCH1 expression in DAOY shSUFU cells; test: Western blot / qPCR in SUFU knockdown (shSUFU) DAOY cells, SMO-independent GLI activation; format: cell-based, human; settings: for PTCH1 mRNA expression: qPCR
Procedure: as §4
In the examples of the present invention, RNAi knockdown experiments were facilitated by lentiviral RNAi production and transductions, which were carried out as described in Kasper et al, 2007, which is incorporated herein by reference (Kasper et al., 2007). The following shRNA constructs (Sigma Aldrich mission TRC library) were used and the following abbreviations are used herein: shRNA DYRK1A (TRCN0000000526), shRNA DYRK1B-1 (TRCN0000002139), shRNA DYRK1B-2 (TRCN0000355722), shSUFU (TRCN0000019466) and control scrambled shRNA (SHC002). […] Transduced cells were selected for puromycin resistance prior to further analysis.
Total RNA was isolated using TRI-reagent (Molecular Research Center Inc.) followed by LiCl purification step. […]

[6] = test system: GLI1 protein expression in A673 cells; test: Western blot of Ewing sarcoma cell line A673; format: cell-based, human; settings: for GLI1 protein expression: GDC-0449 0.5 μM
Procedure: as §4, with “0.1%. […]” for “0.1%.”
as §6

[7] = test system: GLI1 expression in BSZ2 cells; test: Western blot of GLI1 in Ptch-/- BCC cells (BSZ2); format: cell-based; settings: mouse Ptch-/- BCC cells (BSZ2)
Procedure: as §5

[8] = DAOY cells, 100 nM SAG 48 hours, starving conditions

Compound	IC50 (DYRK1B)	HH signaling / GLI target gene activation [1]	GLI1 protein expression [1, 8]	IC50 (DYRK1A)	clonal growth (sphere numbers) [2]	GLI1 protein expression [3]	clonal growth (sphere numbers) [4]	GLI1 expression (protein) ([5]; Western blot)	PTCH1 mRNA expression [5]	GLI1 protein expression [6]	GLI1 mRNA expression [5]	Beta Catenin and STAT3 expression [3]	GLI1 expression [7]	PTCH1 mRNA expression ([1]; qPCR, DAOY cells, 100 nM SAG 48 hours, starving conditions)	Beta Catenin expression [6]
FC(F)(F)c1ccc2[nH]c(Nc3ncccn3)nc2c1 [Compound P, N-(pyrimidin-2-yl)-5-(trifluoromethyl)-1H-benzo[d]imidazol-2-amine]	54.8 nM	significant reduction	significantly inhibited	22.2 nM	–	–	–	–	–	–	–	–	–	–	–
CS(=O)(=O)c1ccc(C(=O)Nc2ccc(Cl)c(-c3ccccn3)c2)c(Cl)c1 [GDC-0449, 2-chloro-N-(4-chloro-3-(pyridin-2-yl)phenyl)-4-(methylsulfonyl)benzamide]	–	–	efficiently blocked	–	not and did not affect	resistance; also recorded: inability	not	unaffected; also recorded: resistant	resistant	inability	–	–	–	–	–
CN(C)c1ccccc1CN1CCCN(Cc2ccccc2N(C)C)C1c1ccncc1 [GANT61, 2,2′-[[Dihydro-2-(4-pyridinyl)-1,3(2H,4H)-pyrimidinediyl]bis-(methylene)]bis[N,N-dimethylbenzenamine)]	–	–	–	–	–	–	–	–	down-regulation; also recorded: sensitive	–	down-regulation	–	–	–	–
COc1ccc2c(c1)[nH]c1c(C)nccc12 [Harmine, 7-MeO-1-Me-9H-pyrido[3,4-b]-indole]	–	significant reduction	significantly inhibited	–	reduces sphere numbers; also recorded: reduced clonogenic growth	reduces; also recorded: reduced levels of GLI1	reduces sphere numbers	–	–	reduces; also recorded: reduced levels of GLI1	–	essentially unaffected	reduced GLI1 expression	significantly inhibited	essentially unaffected
